The source of these data is patent US20230295157A1, “3-(1H-IMIDAZOL-2-YL)-2,3,8,8A-TETRAHYDROINDOLIZIN-5(1H)-ONE DERIVATIVES USEFUL AS FACTOR XIA INHIBITORS” (JANSSEN PHARMACEUTICA NV, priority 2020, published 2023).

For one assay, the target named is Factor XIa (Homo sapiens (Human), UniProt P03951). Kind of assay: Factor XIa inhibition assay (FLINT) utilizing a fluorophore-quencher pair peptide substrate. Conditions: 30 min preincubation, kinetic reads over 30 min, read-out: FXIa Kin Inh IC50. Type of assay: biochemical. Put shortly: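 FXIa ([…]) preincubated 30 min with compound (11-point 3-fold dilution, top 100 nM, 2% DMSO), then 15 μM quenched FXI Arg146-based peptide added; Tris pH 7.5, CaCl2, BSA, CHAPS. Fluorescence 485/520 nm read kinetically every 5 min over 30 min at RT; IC50 by 4-parameter fit.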
Sequence of Factor XIa (P03951 388-625): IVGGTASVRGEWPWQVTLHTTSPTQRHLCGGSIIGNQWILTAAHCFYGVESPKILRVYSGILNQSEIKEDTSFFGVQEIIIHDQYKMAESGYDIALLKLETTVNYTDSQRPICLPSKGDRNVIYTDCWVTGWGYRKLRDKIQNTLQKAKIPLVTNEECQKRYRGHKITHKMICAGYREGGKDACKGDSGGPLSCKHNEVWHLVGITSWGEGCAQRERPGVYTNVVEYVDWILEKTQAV
Sequence of Factor XIa (P03951 19-387 partner): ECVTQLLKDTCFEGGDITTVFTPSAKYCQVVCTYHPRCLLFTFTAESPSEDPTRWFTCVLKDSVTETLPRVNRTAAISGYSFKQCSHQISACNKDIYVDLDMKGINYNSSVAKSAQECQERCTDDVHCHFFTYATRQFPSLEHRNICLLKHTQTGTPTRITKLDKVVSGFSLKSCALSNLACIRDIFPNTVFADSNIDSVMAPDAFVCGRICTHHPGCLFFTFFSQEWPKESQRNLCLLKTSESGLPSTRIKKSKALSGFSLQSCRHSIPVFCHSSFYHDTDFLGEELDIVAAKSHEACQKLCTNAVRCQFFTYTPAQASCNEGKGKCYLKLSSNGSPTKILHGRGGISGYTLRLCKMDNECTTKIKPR

Another assay has as its target human plasma kallikrein (Homo sapiens (Human), UniProt P03952). As to the kind of experiment: Kallikrein inhibition assay (FLINT) utilizing a quenched AMC peptide substrate. Particulars: 30 min preincubation, kinetic reads over 30 min, Z-Gly-Pro-Arg-AMC substrate 50 μM; read-out: Kallikrein Kin Inh IC50. Type of assay: biochemical. Put shortly: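 Enzyme (2 nM final) pre-incubated 30 min at room temperature with compound (11-point, 3-fold, top 1 μM, 2% DMSO), then 50 μM Z-Gly-Pro-Arg-AMC added in Tris pH 7.5 buffer. Kinetic fluorescence 340/440 nm every 5 min over 30 min; IC50 from 4-parameter logistic fit.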

[1] abbreviates: 5Fam-KLTRAETV-K5Tamra substrate 15 μM.
Setting [2] is: 5Fam-[…]-K5Tamra substrate 15 μM.

Like-named read-outs stand apart in the source and are kept apart here.

Sequence of human plasma kallikrein (P03952 391-638): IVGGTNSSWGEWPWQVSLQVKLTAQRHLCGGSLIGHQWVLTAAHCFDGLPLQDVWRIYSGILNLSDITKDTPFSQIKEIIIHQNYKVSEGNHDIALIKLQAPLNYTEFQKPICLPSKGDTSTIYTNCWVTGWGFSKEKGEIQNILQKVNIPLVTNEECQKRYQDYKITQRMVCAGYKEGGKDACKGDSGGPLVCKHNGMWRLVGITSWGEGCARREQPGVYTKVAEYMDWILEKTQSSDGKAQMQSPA
Sequence of human plasma kallikrein (P03952 20-390 partner): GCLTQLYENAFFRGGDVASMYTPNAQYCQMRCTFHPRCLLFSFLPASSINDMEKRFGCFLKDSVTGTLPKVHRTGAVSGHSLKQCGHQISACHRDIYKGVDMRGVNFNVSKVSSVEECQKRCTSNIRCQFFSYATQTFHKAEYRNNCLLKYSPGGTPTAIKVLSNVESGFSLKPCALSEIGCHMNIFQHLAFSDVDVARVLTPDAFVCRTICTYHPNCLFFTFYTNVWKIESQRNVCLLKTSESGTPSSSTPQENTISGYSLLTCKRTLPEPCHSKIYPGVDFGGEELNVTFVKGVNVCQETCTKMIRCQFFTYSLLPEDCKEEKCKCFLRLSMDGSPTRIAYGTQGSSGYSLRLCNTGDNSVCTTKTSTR

On to `O=C1C=C(c2c(OC(F)F)ccc(Cl)c2F)C[C@H]2CC[C@@H](c3ncc(-c4ccnc(CO)c4F)[nH]3)N12` [Example 25, (3S,8aR)-7-(3-Chloro-6-(difluoromethoxy)-2-fluorophenyl)-3-(5-(3-fluoro-2-(hydroxymethyl)pyridin-4-yl)-1H-imidazol-2-yl)-2,3,8,8a-tetrahydroindolizin-5(1H)-one], for which the IC50 (as a rule, the midpoint of a concentration-inhibition curve) is over 100 nM at Factor XIa (setting [1]) and 480 nM on human plasma kallikrein.
`O=C1C=C(c2c(C(F)F)ccc(Cl)c2F)C[C@H]2CC[C@@H](c3ncc(-c4ccnc(CO)c4F)[nH]3)N12` [Example 26, (3S,8aR)-7-(3-Chloro-6-(difluoromethyl)-2-fluorophenyl)-3-(5-(3-fluoro-2-(hydroxymethyl)pyridin-4-yl)-1H-imidazol-2-yl)-2,3,8,8a-tetrahydroindolizin-5(1H)-one]: the IC50 on Factor XIa (setting [2]) was over 100 nM; on human plasma kallikrein, 270 nM.
`O=C1C=C(c2c(C(F)F)ccc(Cl)c2F)C[C@H]2CC[C@@H](c3nc(F)c(-c4ccnc(CO)c4F)[nH]3)N12` [Example 27, (3S,8aR)-7-(3-Chloro-6-(difluoromethyl)-2-fluorophenyl)-3-(4-fluoro-5-(3-fluoro-2-(hydroxymethyl)pyridin-4-yl)-1H-imidazol-2-yl)-2,3,8,8a-tetrahydroindolizin-5(1H)-one]: the IC50 on Factor XIa (setting [1]) was over 100 nM; on human plasma kallikrein it was 118 nM.
Taken in the same sequence, the figures for `Cc1nc2ccc(-c3cnc([C@@H]4CC[C@@H]5CC(c6c(-n7cnnn7)ccc(Cl)c6F)=CC(=O)N54)[nH]3)cc2[nH]1` [Example 30, (3S,8aR)-7-(3-chloro-2-fluoro-6-(1H-tetrazol-1-yl)phenyl)-3-(5-(2-methyl-1H-benzo[d]imidazol-6-yl)-1H-imidazol-2-yl)-2,3,8,8a-tetrahydroindolizin-5(1H)-one] were 2.1 nM and 4.4 nM.
The corresponding values for `O=C1C=C(c2c(-n3cnnn3)ccc(Cl)c2F)C[C@H]2CC[C@@H](c3nc(-c4ccnc5[nH]ccc45)c[nH]3)N12` [Example 32, (3S,8aR)-3-(4-(1H-pyrrolo[2,3-b]pyridin-4-yl)-1H-imidazol-2-yl)-7-(3-chloro-2-fluoro-6-(1H-tetrazol-1-yl)phenyl)-2,3,8,8a-tetrahydroindolizin-5(1H)-one] are 1.5 nM and 2.9 nM.
As for `[2H]C1([2H])C[C@@H](c2ncc(-c3ccnc(CO)c3F)[nH]2)N2C(=O)C=C(c3c(-n4cnnn4)ccc(Cl)c3F)C([2H])([2H])[C@]21[2H]` [Example 33, (3S,8aR)-7-(3-Chloro-2-fluoro-6-(1H-tetrazol-1-yl)phenyl)-3-(5-(3-fluoro-2-(hydroxymethyl)pyridin-4-yl)-1H-imidazol-2-yl)-2,3,8,8a-tetrahydroindolizin-5(1H)-one-1,1,8,8,8a-d5], the IC50 at Factor XIa (setting [2]) amounted to 3.9 nM; at human plasma kallikrein, 33.2 nM.
For `O=C(O)c1nccc(-c2[nH]c([C@@H]3CC[C@@H]4CC(c5c(-n6cc(C(F)(F)F)nn6)ccc(Cl)c5F)=CC(=O)N43)nc2F)c1F` [Example 34, 4-(2-((3S,8aR)-7-(3-Chloro-2-fluoro-6-(4-(trifluoromethyl)-1H-1,2,3-triazol-1-yl)phenyl)-5-oxo-1,2,3,5,8,8a-hexahydroindolizin-3-yl)-4-fluoro-1H-imidazol-5-yl)-3-fluoropicolinic acid], the IC50 at Factor XIa (setting [1]) came to 0.6 nM; on human plasma kallikrein, 32.8 nM.
As to `O=C1C=C(c2c(-n3cnnn3)ccc(Cl)c2F)C[C@H]2CC[C@@H](c3nc(-c4ccnc5[nH]ncc45)c[nH]3)N12` [Example 38, (3S,8aR)-3-(4-(1H-pyrazolo[3,4-b]pyridin-4-yl)-1H-imidazol-2-yl)-7-(3-chloro-2-fluoro-6-(1H-tetrazol-1-yl)phenyl)-2,3,8,8a-tetrahydroindolizin-5(1H)-one], the IC50 amounted to 2.1 nM at Factor XIa (setting [1]) and 2.6 nM at human plasma kallikrein.
The corresponding values for `O=C1C=C(c2c(-n3cnnn3)ccc(Cl)c2F)C[C@H]2CC[C@@H](c3nc(-c4ncc(CO)s4)c[nH]3)N12` [Example 39, (3S,8aR)-7-(3-Chloro-2-fluoro-6-(1H-tetrazol-1-yl)phenyl)-3-(4-(5-(hydroxymethyl)thiazol-2-yl)-1H-imidazol-2-yl)-2,3,8,8a-tetrahydroindolizin-5(1H)-one] are 95.6 nM and 136 nM.
Taken in the same sequence, the figures for `COC(=O)Nc1nccc(-c2[nH]c([C@@H]3CC[C@@H]4CC(c5c(-n6cnnn6)ccc(Cl)c5F)=CC(=O)N43)nc2F)c1F` [Example 40, Methyl N-[4-[2-[(3S,8aR)-7-[3-chloro-2-fluoro-6-(tetrazol-1-yl)phenyl]-5-oxo-2,3,8,8a-tetrahydro-1H-indolizin-3-yl]-4-fluoro-1H-imidazol-5-yl]-3-fluoro-2-pyridyl]carbamate] were 0.8 nM and 6.4 nM.
Taken in the same sequence, the figures for `O=C1C=C(c2c(-n3cnnn3)ccc(Cl)c2F)C[C@H]2CC[C@@H](c3nc(-c4cnc5[nH]ncc5c4)c[nH]3)N12` [Example 41, (3S,8aR)-3-(4-(1H-pyrazolo[3,4-b]pyridin-5-yl)-1H-imidazol-2-yl)-7-(3-chloro-2-fluoro-6-(1H-tetrazol-1-yl)phenyl)-2,3,8,8a-tetrahydroindolizin-5(1H)-one] were 44.7 nM and 54.2 nM.
Regarding `O=C1C=C(c2c(-n3cnnn3)ccc(Cl)c2F)C[C@H]2CC[C@@H](c3nc(-c4ccc5[nH]cnc5c4)c[nH]3)N12` [Example 42, (3S,8aR)-3-(4 (1H-benzo[d]imidazol-5-yl)-1H-imidazol-2-yl)-7-(3-chloro-2-fluoro-6-(1H-tetrazol-1-yl)phenyl)-2,3,8,8a-tetrahydroindolizin-5(1H)-one], the results for the IC50 at Factor XIa (setting [1]) and at human plasma kallikrein were 1 nM and 4.6 nM, respectively.
As to `O=C1C=C(c2c(-n3cnnn3)ccc(Cl)c2F)C[C@H]2CC[C@@H](c3nc(-c4ccc5[nH]ncc5c4)c[nH]3)N12` [Example 43, (3S,8aR)-3-(4-(1H-indazol-5-yl)-1H-imidazol-2-yl)-7-(3-chloro-2-fluoro-6-(1H-tetrazol-1-yl)phenyl)-2,3,8,8a-tetrahydroindolizin-5(1H)-one], the IC50 at Factor XIa (setting [1]) came out at 2.1 nM; on human plasma kallikrein it was 4 nM.
Taken in the same sequence, the figures for `COC(=O)Nc1nccc(-c2cnc([C@@H]3CC[C@@H]4CC(c5c(-n6cnnn6)ccc(Cl)c5F)=CC(=O)N43)[nH]2)c1F` [Example 44, Methyl(4-(2-((3S,8aR)-7-(3-chloro-2-fluoro-6-(1H-tetrazol-1-yl)phenyl)-5-oxo-1,2,3,5,8,8a-hexahydroindolizin-3-yl)-1H-imidazol-5-yl)-3-fluoropyridin-2-yl)carbamate] were 1.8 nM and 11.4 nM.
The corresponding values for `COC(=O)c1nccc(-c2cnc([C@@H]3CC[C@@H]4CC(c5c(-n6cc(Cl)nn6)ccc(Cl)c5F)=CC(=O)N43)[nH]2)c1F` [Example 50] are 19.8 nM and 31.6 nM.
Taken in the same sequence, the figures for `O=C1C=C(c2c(-n3cnnn3)ccc(Cl)c2F)C[C@H]2CC[C@@H](c3nc(-c4cccc5[nH]ncc45)c[nH]3)N12` [Example 51, (3S,8aR)-3-(4-(1H-indazol-4-yl)-1H-imidazol-2-yl)-7-(3-chloro-2-fluoro-6-(1H-tetrazol-1-yl)phenyl)-2,3,8,8a-tetrahydroindolizin-5(1H)-one] were 3.8 nM and 4.4 nM.
As for `COC(=O)c1nccc(-c2cnc([C@@H]3CC[C@@H]4CC(c5c(-n6cnnn6)ccc(Cl)c5F)=CC(=O)N43)[nH]2)c1F` [Example 52, Methyl 4 [2-[(3S,8aR)-7-[3-chloro-2-fluoro-6-(tetrazol-1-yl)phenyl]-5-oxo-2,3,8,8a-tetrahydro-1H-indolizin-3-yl]-1H-imidazol-5-yl]-3-fluoro-pyridine-2-carboxylate], the IC50 at Factor XIa (setting [1]) was 3.2 nM; on human plasma kallikrein it was 9.5 nM.
The corresponding values for `O=C1C=C(c2c(-n3cnnn3)ccc(Cl)c2F)CC2CCC(c3ncc(-c4ccnc(-c5ccn[nH]5)c4)[nH]3)N12` (stereo not shown) [Example 53, 3-(5-(2-(1H-pyrazol-5-yl)pyridin-4-yl)-1H-imidazol-2-yl)-7-(3-chloro-2-fluoro-6-(1H-tetrazol-1-yl)phenyl)-2,3,8,8a-tetrahydroindolizin-5(1H)-one] are 1.7 nM and 2.8 nM.
Taken in the same sequence, the figures for `O=C1C=C(c2cc(Cl)ccc2-n2cnnn2)C(F)(F)C2CC[C@@H](c3ncc(-c4ccnc(CO)c4F)[nH]3)N12` (stereo partly drawn) [Example 56, (3S)-7-(5-chloro-2-(1H-tetrazol-1-yl)phenyl)-8,8-difluoro-3-(5-(3-fluoro-2-(hydroxymethyl)pyridin-4-yl)-1H-imidazol-2-yl)-2,3,8,8a-tetrahydroindolizin-5(1H)-one] were 35.2 nM and 59.2 nM.
With `Cc1ccc(-n2cnnn2)c(C2=CC(=O)N3[C@H](CC[C@H]3c3ncc(-c4ccnc(CO)c4F)[nH]3)C2)c1F` [Example 57, (3S,8aR)-3-(5-(3-fluoro-2-(hydroxymethyl)pyridin-4-yl)-1H-imidazol-2-yl)-7-(2-fluoro-3-methyl-6-(1H-tetrazol-1-yl)phenyl)-2,3,8,8a-tetrahydroindolizin-5(1H)-one], the results for the IC50 on Factor XIa (setting [1]) and on human plasma kallikrein were 20.2 nM and 106 nM, respectively.
